Consider 43 compounds from US6506780B2, “Benzophenones and sulfones as inhibitors of glycine uptake” (Pfizer Inc., priority 2000, dated 2003).

Counter-ions that a name gives are not always drawn.

Tested on in one data set: not given
Details: not given
As for `CC(C)c1ccc(C(=O)c2ccc(OC(CCN(C)CC(=O)O)c3ccc(F)cc3)cc2)cc1` (stereo not shown) (as salt: salt), the melting point (commonly the temperature of the solid-liquid transition) is 70 to 80 °C.

The compound `Cc1cccc(C(=O)c2ccc(OC(CCN(C)CC(=O)O)c3ccc(F)cc3)cc2)c1` (stereo not shown) (as salt: salt) came in with a melting point of 75 to 85 °C.

`CN(CCC(Oc1ccc(C(=O)c2ccccc2F)cc1)c1ccc(Cl)cc1)CC(=O)O` (stereo not shown) (as salt: salt) returned a melting point of 75 to 85 °C.

`Cc1ccc(C(=O)c2ccc(OC(CCN(C)CC(=O)O)c3ccc(F)cc3)cc2)cc1` (stereo not shown) (as salt: salt): the melting point is 60 to 70 °C.

The compound `CN(CCC(Oc1ccc(S(=O)(=O)c2ccccc2)cc1)c1ccccc1)CC(=O)O` (stereo not shown) (as salt: salt) yielded a melting point of 95 to 100 °C.

`CN(CCC(Oc1ccc(C(=O)c2ccccc2)cc1)c1ccc(F)cc1)CC(=O)O` (stereo not shown) (as salt: salt) had a melting point of 80 to 95 °C.

Regarding `CN(CCC(Oc1ccc(C(=O)c2ccc(F)cc2F)cc1)c1ccc(Cl)cc1)CC(=O)O` (stereo not shown) (as salt: salt), the melting point was in the range of 75 to 85 °C.

Compound `CN(CCC(Oc1ccc(C(=O)c2ccc3ccccc3c2)cc1)c1ccc(F)cc1)CC(=O)O` (stereo not shown) (as salt: salt) had a melting point of 87 to 97 °C.

`Cc1cccnc1C(=O)c1ccc(OC(CCN(C)CC(=O)O)c2ccc(F)cc2)cc1` (stereo not shown) (as salt: salt) displayed a melting point of 65 to 73 °C.

Consider `CN(CCC(Oc1ccc(C(=O)c2ccsc2)cc1)c1ccc(F)cc1)CC(=O)O` (stereo not shown) (as salt: salt), for which the melting point was in the range of 65 to 75 °C.

`CN(CCC(Oc1ccc(C(=O)c2cc3ccccc3s2)cc1)c1ccc(F)cc1)CC(=O)O` (stereo not shown) (as salt: salt) registered a melting point of 90 to 100 °C.

`COc1ccc(C(=O)c2ccc(OC(CCN(C)CC(=O)O)c3ccc(F)cc3)cc2)cc1` (stereo not shown) (as salt: salt) gave a melting point of 75 to 85 °C.

For `CN(CCC(Oc1ccc(C(=O)c2cc(C(F)(F)F)cc(C(F)(F)F)c2)cc1)c1ccc(F)cc1)CC(=O)O` (stereo not shown), the melting point lay within 60 to 75 °C.

In turn, `CN(CCC(Oc1ccc(C(=O)c2ccc(Cl)cc2)cc1)c1ccc(Cl)cc1)CC(=O)O` (stereo not shown) (as salt: salt) showed a melting point of 63 to 68 °C.

As for `CN(CCC(Oc1ccc(C(=O)c2cc3ccccc3s2)cc1)c1ccc(Cl)cc1)CC(=O)O` (stereo not shown) (as salt: salt), the melting point was 101 to 112 °C.

`CN(CCC(Oc1ccc(C(=O)c2cccc3ccccc23)cc1)c1ccc(F)cc1)CC(=O)O` (stereo not shown) (as salt: salt) had a melting point of 91 to 100 °C.

In turn, `CN(CCC(Oc1ccc(C(=O)c2ccncc2)cc1)c1ccc(F)cc1)CC(=O)O` (stereo not shown) (as salt: salt) gave a melting point of 52 to 65 °C.

For `CN(CCC(Oc1ccc(C(=O)c2c(F)cccc2F)cc1)c1ccc(F)cc1)CC(=O)O` (stereo not shown) (as salt: salt), the melting point fell in the range of 77 to 87 °C.

In the case of `Cc1cccc(C(=O)c2ccc(OC(CCN(C)CC(=O)O)c3ccc(F)cc3)cc2)c1C` (stereo not shown) (as salt: salt), the melting point fell in the range of 83 to 93 °C.

In turn, `CN(CCC(Oc1ccc(C(=O)c2ccc(Cl)cc2)cc1)c1ccc(F)cc1)CC(=O)O` (stereo not shown) (as salt: salt) came in with a melting point of 71 to 85 °C.

`COc1ccc(C(=O)c2ccc(OC(CCN(C)CC(=O)O)c3ccc(Cl)cc3)cc2)cc1` (stereo not shown) (as salt: salt) gave a melting point of 60 to 70 °C.

Regarding `Cc1ccc(C(=O)c2ccc(OC(CCN(C)CC(=O)O)c3ccccc3)cc2)cc1` (stereo not shown) (as salt: salt), the melting point lay in the range of 85 to 95 °C.

For the compound `CN(CCC(Oc1cccc(C(=O)c2ccncc2)c1)c1ccc(Cl)cc1)CC(=O)O` (stereo not shown), the melting point was in the range of 68 to 78 °C.

Consider `CN(CCC(Oc1ccc(C(=O)c2ccc(F)cc2)cc1)c1ccccc1)CC(=O)O` (stereo not shown) (as salt: salt), for which the melting point was 65 to 83 °C.

As to `CN(CCC(Oc1ccc(C(=O)c2nccs2)cc1)c1ccc(Cl)cc1)CC(=O)O` (stereo not shown), the melting point was 80 to 100 °C.

The compound `CN(CCC(Oc1ccc(C(=O)c2ccncc2)cc1)c1ccc(Cl)cc1)CC(=O)O` (stereo not shown) showed a melting point of 72 to 82 °C.

As for `CN(CCC(Oc1cccc(C(=O)c2ccncc2)c1)c1ccc(F)cc1)CC(=O)O` (stereo not shown), the melting point is 60 to 70 °C.

Turning to `CN(CCC(Oc1ccc(C(=O)c2ccc(C(F)(F)F)cc2)cc1)c1ccc(F)cc1)CC(=O)O` (stereo not shown) (as salt: salt), the melting point was in the range of 58 to 72 °C.

The compound `Cc1cnc(C(=O)c2ccc(OC(CCN(C)CC(=O)O)c3ccc(F)cc3)cc2)s1` (stereo not shown) (as salt: salt) displayed a melting point of 95 to 110 °C.

Compound `CN(CCC(Oc1ccc(C(=O)c2nccs2)cc1)c1ccc(F)cc1)CC(=O)O` (stereo not shown) (as salt: salt) gave a melting point of 98 to 108 °C.

`CN(CCC(Oc1ccc(C(=O)c2ccc(C(F)(F)F)cc2)cc1)c1ccc(Cl)cc1)CC(=O)O` (stereo not shown) (as salt: salt): the melting point was 63 to 70 °C.

`Cc1cccc(C(=O)c2ccc(OC(CCN(C)CC(=O)O)c3ccc(Cl)cc3)cc2)c1C` (stereo not shown) (as salt: salt) registered a melting point of 85 to 93 °C.

With `Cc1cnc(C(=O)c2ccc(OC(CCN(C)CC(=O)O)c3ccc(Cl)cc3)cc2)s1` (stereo not shown) (as salt: salt), the melting point fell in the range of 182 to 192 °C.

Consider `CN(CCC(Oc1ccc(C(=O)c2ccc3ccccc3c2)cc1)c1ccccc1)CC(=O)O` (stereo not shown) (as salt: salt), for which the melting point was in the range of 77 to 89 °C.

`CN(CCC(Oc1ccc(C(=O)c2nc3ccccc3s2)cc1)c1ccc(F)cc1)CC(=O)O` (stereo not shown) (as salt: salt) yielded a melting point of 105 to 111 °C.

As to `CN(CCC(Oc1ccc(C(=O)c2ccccn2)cc1)c1ccc(F)cc1)CC(=O)O` (stereo not shown) (as salt: salt), the melting point lay in the range of 68 to 80 °C.

`CN(CCC(Oc1ccc(C(=O)c2ccccc2F)cc1)c1ccc(F)cc1)CC(=O)O` (stereo not shown) (as salt: salt) had a melting point of 65 to 75 °C.

Compound `CN(CCC(Oc1ccc(C(=O)c2ccc(C(F)(F)F)cc2)cc1)c1ccccc1)CC(=O)O` (stereo not shown) (as salt: salt) had a melting point of 65 to 83 °C.

For the compound `Cc1ccc(C(=O)c2ccc(OC(CCN(C)CC(=O)O)c3ccc(F)cc3)cc2)nc1` (stereo not shown), the melting point is 55 to 65 °C.

Turning to `CN(CCC(Oc1ccc(C(=O)c2ccsc2)cc1)c1ccc(Cl)cc1)CC(=O)O` (stereo not shown) (as salt: salt), the melting point lay within 91 to 110 °C.

With `CN(CCC(Oc1ccc(C(=O)c2ccc(F)cc2F)cc1)c1ccc(F)cc1)CC(=O)O` (stereo not shown) (as salt: salt), the melting point fell in the range of 65 to 75 °C.

As for `Cc1ccc(C(=O)c2ccc(OC(CCN(C)CC(=O)O)c3ccc(Cl)cc3)cc2)cc1` (stereo not shown) (as salt: salt), the melting point is 65 to 71 °C.

A further data set concerns NMDA receptor. As to conditions: effect blocked by a specific NMDA-site antagonist and a glycine-site antagonist; cited from earlier work.
For `CN(CCC(Oc1ccc(-c2ccccc2)cc1)c1ccc(F)cc1)CC(=O)O` (stereo not shown) [NFPS], the “post synaptic current driven by the NMDA receptor” value is listed as “increased the post synaptic current driven by the NMDA receptor”.
